{"source": "paper PMC11963564", "about": "(Antimicrobial Agents and Chemotherapy, 2025)", "key": {"SARS-CoV-2 Omicron BA.1": {"system": "SARS-CoV-2 Omicron BA.1", "experiment": "microbe, parasite or virus in culture", "type": "cell-based"}, "[1]": {"system": "SARS-CoV-2 Omicron XBB.1.5", "experiment": "microbe, parasite or virus in culture", "type": "cell-based"}, "[2]": {"system": "SARS-CoV-2 Omicron XBB.1.16", "experiment": "microbe, parasite or virus in culture", "type": "cell-based"}, "SARS-CoV-2 Omicron BA.4": {"system": "SARS-CoV-2 Omicron BA.4", "experiment": "microbe, parasite or virus in culture", "type": "cell-based"}, "SARS-CoV-2 Omicron EG.5": {"system": "SARS-CoV-2 Omicron EG.5", "experiment": "microbe, parasite or virus in culture", "type": "cell-based"}, "SARS-CoV-2 Omicron BA.5": {"system": "SARS-CoV-2 Omicron BA.5", "experiment": "microbe, parasite or virus in culture", "type": "cell-based"}, "SARS-CoV-2 Omicron JN.1": {"system": "SARS-CoV-2 Omicron JN.1", "experiment": "microbe, parasite or virus in culture", "type": "cell-based"}, "[3]": {"system": "SARS-CoV-2 Omicron CH.1.1", "experiment": "microbe, parasite or virus in culture", "type": "cell-based"}, "SARS-CoV-2 Delta": {"system": "SARS-CoV-2 Delta", "conditions": "cited from earlier work"}, "SARS-CoV-2 WIV04": {"system": "SARS-CoV-2 WIV04", "conditions": "cited from earlier work"}, "[4]": {"conditions": "Severe acute respiratory syndrome coronavirus 2, Vero C1008, 48 h"}, "[5]": {"conditions": "Severe acute respiratory syndrome coronavirus 2, Vero C1008, 72 h"}}, "note": "Read-outs that look alike come from different tables or passages of the source."}
{"molecule": "CC(C)(C)[C@H](NC(=O)C(F)(F)F)C(=O)N1C[C@H]2[C@@H]([C@H]1C(=O)N[C@H](C#N)C[C@@H]1CCNC1=O)C2(C)C", "note": "[nirmatrelvir, reference compound]", "values": [{"measurement": "IC50", "setting": "SARS-CoV-2 Omicron BA.1; [4]", "result": "57 ± 12", "unit": "nM"}, {"measurement": "IC90", "setting": "SARS-CoV-2 Omicron BA.1; [4]", "result": "142 ± 61", "unit": "nM"}, {"measurement": "IC50", "setting": "[1]; [4]", "result": "22 ± 14", "unit": "nM"}, {"measurement": "IC90", "setting": "[1]; [4]", "result": "84 ± 39", "unit": "nM"}, {"measurement": "IC50", "setting": "[2]; [5]", "result": "101 ± 23", "unit": "nM"}, {"measurement": "IC90", "setting": "[2]; [5]", "result": "262 ± 140", "unit": "nM"}, {"measurement": "IC50", "setting": "SARS-CoV-2 Omicron BA.4; [4]", "result": "72 ± 13", "unit": "nM"}, {"measurement": "IC90", "setting": "SARS-CoV-2 Omicron BA.4; [4]", "result": "157 ± 77", "unit": "nM"}, {"measurement": "IC50", "setting": "SARS-CoV-2 Omicron EG.5; [5]", "result": "98 ± 26", "unit": "nM"}, {"measurement": "IC90", "setting": "SARS-CoV-2 Omicron EG.5; [5]", "result": "617 ± 170", "unit": "nM"}, {"measurement": "IC50", "setting": "SARS-CoV-2 Omicron BA.5; [4]", "result": "90 ± 38", "unit": "nM"}, {"measurement": "IC90", "setting": "SARS-CoV-2 Omicron BA.5; [4]", "result": "341 ± 140", "unit": "nM"}, {"measurement": "IC50", "setting": "SARS-CoV-2 Omicron JN.1; [5]", "result": "98 ± 27", "unit": "nM"}, {"measurement": "IC90", "setting": "SARS-CoV-2 Omicron JN.1; [5]", "result": "469 ± 183", "unit": "nM"}, {"measurement": "IC50", "setting": "[3]; [4]", "result": "26 ± 21", "unit": "nM"}, {"measurement": "IC90", "setting": "[3]; [4]", "result": "59 ± 26", "unit": "nM"}]}
{"molecule": "simnotrelvir", "values": [{"measurement": "IC50", "setting": "SARS-CoV-2 Delta", "result": 34, "unit": "nM"}, {"measurement": "IC50", "setting": "SARS-CoV-2 Omicron BA.1; read-out: IC50", "result": "148 ± 62", "unit": "nM"}, {"measurement": "IC90", "setting": "SARS-CoV-2 Omicron BA.1; read-out: IC90", "result": "267 ± 82", "unit": "nM"}, {"measurement": "IC50", "setting": "[1]; read-out: IC50", "result": "82 ± 58", "unit": "nM"}, {"measurement": "IC90", "setting": "[1]; read-out: IC90", "result": "254 ± 111", "unit": "nM"}, {"measurement": "IC50", "setting": "[2]; read-out: IC50", "result": "130 ± 20", "unit": "nM"}, {"measurement": "IC90", "setting": "[2]; read-out: IC90", "result": "230 ± 93", "unit": "nM"}, {"measurement": "IC50", "setting": "SARS-CoV-2 Omicron BA.4; read-out: IC50", "result": "189 ± 6", "unit": "nM"}, {"measurement": "IC90", "setting": "SARS-CoV-2 Omicron BA.4; read-out: IC90", "result": "250 ± 67", "unit": "nM"}, {"measurement": "IC50", "setting": "SARS-CoV-2 WIV04", "result": 26, "unit": "nM"}, {"measurement": "IC50", "setting": "SARS-CoV-2 Omicron EG.5; read-out: IC50", "result": "174 ± 97", "unit": "nM"}, {"measurement": "IC90", "setting": "SARS-CoV-2 Omicron EG.5; read-out: IC90", "result": "803 ± 236", "unit": "nM"}, {"measurement": "IC50", "setting": "SARS-CoV-2 Omicron BA.5; read-out: IC50", "result": "208 ± 55", "unit": "nM"}, {"measurement": "IC90", "setting": "SARS-CoV-2 Omicron BA.5; read-out: IC90", "result": "449 ± 171", "unit": "nM"}, {"measurement": "IC50", "setting": "SARS-CoV-2 Omicron JN.1; read-out: IC50", "result": "124 ± 31", "unit": "nM"}, {"measurement": "IC90", "setting": "SARS-CoV-2 Omicron JN.1; read-out: IC90", "result": "684 ± 188", "unit": "nM"}, {"measurement": "IC50", "setting": "[3]; read-out: IC50", "result": "65 ± 6", "unit": "nM"}, {"measurement": "IC90", "setting": "[3]; read-out: IC90", "result": "99 ± 52", "unit": "nM"}]}
